Assays:
LRRK2 G2019S = target: T1, LRRK2 G2019S (Homo sapiens, UniProt Q5S007, G2019S); assay: Odyssey CLx 96-well ICW assay, LRRK2-Ser935 phosphorylation in transfected HEK293 cells; assay type: cell-based; conditions: transiently transfected HEK293 cells, overactive variant G2019S, 1 h, mean, n = 3
T1 construct: expressed in transfected cells; host or cells: HEK293
Text: (§1) Plasmids encoding various LRRK2 and Rab GTPase protein variants were transiently expressed in HEK293 cells using Lipofectamine®2000 according to the manufacturer’s instructions (Thermo Fisher Scientific, US).
(§2) HEK293 cells grown in clear-bottom 96-well plates were transfected with either wild type LRRK2, kinase overactive variant G2019S, inhibition-resistant mutant A2016T or mock, respectively. […] Subsequently, the plates were processed as previously described.

LRRK2 WT = LRRK2 WT (Homo sapiens, UniProt Q5S007); assay: as above; assay type: cell-based; conditions: transiently transfected HEK293 cells, 1 h, mean, n = 3
Text: as §1, §2

LRRK2 A2016T = target: T2, LRRK2 A2016T (Homo sapiens, UniProt Q5S007, A2016T); assay: as above; assay type: cell-based; conditions: transiently transfected HEK293 cells, inhibition resistant mutant A2016T, 1 h, mean, n = 3
T2 construct: expressed in transfected cells; host or cells: HEK293
Text: as §1, §2

Rab10-pThr73 = assay: Acute inhibition, Western Blot, non-stimulated human PBMCs; assay type: cell-based
Protocol: (§3) HEK293 cells were plated at a density of 1 × 10^6 cells/well in 6-well plates pre-coated for 1 hr at 37 °C with poly-L-lysin. Subsequent to the transient transfection HEK293 cells were harvested using 1 mL cold Phosphate Buffered Saline (PBS) buffer (Invitrogen, California, US) and subsequently centrifuged at 800 g for 2 minutes. Cell pellets were resuspended and solubilized in 100 µL lysis buffer (50 mM Tris hydrochloride, 1 mM magnesium chloride, 1% Triton, 0.1% sodium dodecyl sulfate (SDS), pH 8.0) on ice for 20 minutes and then centrifuged at 20,000 g for 30 minutes at 4 °C. The solubilized crude cell lysate was size mobility separated by SDS-polyacrylamide gel electrophoresis (SDS-PAGE). LRRK2 was separated on a 3–8% Tris-Acetate gel (NuPAGE® Tris-Acetate Mini Gels, Life Technologies, Paisley, UK) and Rab10 and Rab12 were separated using a NuPAGE® Novex 4–12% Bis-Tris Gel (Invitrogen, California, US). An amount of 10 µg total protein was loaded in each well. Proteins were transferred to immobilon-FL PVDF membranes (Millipore, Billerica, US). Membranes were incubated with primary antibodies overnight at 4 °C: mouse monoclonal [N241A/34] anti-LRRK2 antibody (1:2,000; NeuroMab, California, US), rabbit monoclonal [UDD2 10(12)] anti-pS935-LRRK2 antibody (1:1,000; RabMAb®, Abcam, Cambridge, UK), mouse anti-HA monoclonal antibody [clone HA-7] (1:10,000; Santa Cruz Biotechnology, Texas, US), rabbit anti-Rab10-pThr73 polyclonal [#5981] (1:2,000; H. Lundbeck A/S, DK) and rabbit anti-Rab12-Ser106 polyclonal antibody [#5919] (1:5,000; H. Lundbeck A/S, DK). Subsequently, the membranes were washed and incubated with secondary antibodies for 1 hour at room temperature: Anti-rabbit IgG F(c) (GOAT) antibody IRDye® 800CW Conjugated (1:10,000; Rockland Immunochemicals Inc., Gilbertsville, US) and anti-mouse Alexa Fluor® 680 Goat anti-mouse IgM (1:20,000; Life Technologies, Paisley, UK). The proteins were visually detected by infrared imaging using Odyssey CLx (LI-COR, Nebraska, US). Membranes were scanned and band intensities were quantified using the Image Studio version 3.1.4 (LI-COR, Nebraska).
(§4) PBMCs were isolated using the density gradient medium, Lymphoprep™ from Stemcell Technologies (Vancouver, Canada) following their standard protocol. Briefly, 4 ml blood was diluted with 4 ml PBS and applied at the SepMate™ tubes (Stemcell Technologies) and spun at 1200xg for 20 min at RT in the centrifuge without brakes. The PBMC layer was collected and spun at 600xg for 8 min and washed two times in PBS by spinning at 600xg between each wash. After the last wash, the cells were counted and the cellular concentration was adjusted to 50 × 10^6 cells/ml in PBS. Donor samples were treated with the LRRK2 inhibitor PFE-360 for one hour and the cells were hereafter lysed by adding 1/10 volume lysis buffer (5% Triton-X, 5% Digitonin, 10 mM EDTA) containing phosphatase and protease inhibitor cocktail (Roche Diagnostics, Mannheim, Germany). The lysates from human PBMCs were subjected to SDS-PAGE and Western Blotting procedures as described above.

LRRK2-pSer935 = target: T3, LRRK2-pSer935 (Homo sapiens, UniProt Q5S007); assay: as above; assay type: cell-based
T3 construct: human primary cells expressing endogenous levels of LRRK2; endogenous in cells; host or cells: human PBMCs from healthy donors
Protocol: as §3, §4

TEC = system: T4, TEC; assay: KiNativ profiling in human PBMCs; assay type: binding; conditions: Activation Loop
T4 construct: purchased ActivX Technologies (KiNativ)

MST4 = system: T5, MST4; assay: KiNativ profiling in human PBMCs; assay type: binding; conditions: Lys1
T5 construct: purchased ActivX Technologies (KiNativ)

[1] = 2 µM, 1hr, non-stimulated PBMCs, n = 6 donors
[2] = non-stimulated human PBMCs, 1 hour, n = 3

T3 sequence (Q5S007 whole entry): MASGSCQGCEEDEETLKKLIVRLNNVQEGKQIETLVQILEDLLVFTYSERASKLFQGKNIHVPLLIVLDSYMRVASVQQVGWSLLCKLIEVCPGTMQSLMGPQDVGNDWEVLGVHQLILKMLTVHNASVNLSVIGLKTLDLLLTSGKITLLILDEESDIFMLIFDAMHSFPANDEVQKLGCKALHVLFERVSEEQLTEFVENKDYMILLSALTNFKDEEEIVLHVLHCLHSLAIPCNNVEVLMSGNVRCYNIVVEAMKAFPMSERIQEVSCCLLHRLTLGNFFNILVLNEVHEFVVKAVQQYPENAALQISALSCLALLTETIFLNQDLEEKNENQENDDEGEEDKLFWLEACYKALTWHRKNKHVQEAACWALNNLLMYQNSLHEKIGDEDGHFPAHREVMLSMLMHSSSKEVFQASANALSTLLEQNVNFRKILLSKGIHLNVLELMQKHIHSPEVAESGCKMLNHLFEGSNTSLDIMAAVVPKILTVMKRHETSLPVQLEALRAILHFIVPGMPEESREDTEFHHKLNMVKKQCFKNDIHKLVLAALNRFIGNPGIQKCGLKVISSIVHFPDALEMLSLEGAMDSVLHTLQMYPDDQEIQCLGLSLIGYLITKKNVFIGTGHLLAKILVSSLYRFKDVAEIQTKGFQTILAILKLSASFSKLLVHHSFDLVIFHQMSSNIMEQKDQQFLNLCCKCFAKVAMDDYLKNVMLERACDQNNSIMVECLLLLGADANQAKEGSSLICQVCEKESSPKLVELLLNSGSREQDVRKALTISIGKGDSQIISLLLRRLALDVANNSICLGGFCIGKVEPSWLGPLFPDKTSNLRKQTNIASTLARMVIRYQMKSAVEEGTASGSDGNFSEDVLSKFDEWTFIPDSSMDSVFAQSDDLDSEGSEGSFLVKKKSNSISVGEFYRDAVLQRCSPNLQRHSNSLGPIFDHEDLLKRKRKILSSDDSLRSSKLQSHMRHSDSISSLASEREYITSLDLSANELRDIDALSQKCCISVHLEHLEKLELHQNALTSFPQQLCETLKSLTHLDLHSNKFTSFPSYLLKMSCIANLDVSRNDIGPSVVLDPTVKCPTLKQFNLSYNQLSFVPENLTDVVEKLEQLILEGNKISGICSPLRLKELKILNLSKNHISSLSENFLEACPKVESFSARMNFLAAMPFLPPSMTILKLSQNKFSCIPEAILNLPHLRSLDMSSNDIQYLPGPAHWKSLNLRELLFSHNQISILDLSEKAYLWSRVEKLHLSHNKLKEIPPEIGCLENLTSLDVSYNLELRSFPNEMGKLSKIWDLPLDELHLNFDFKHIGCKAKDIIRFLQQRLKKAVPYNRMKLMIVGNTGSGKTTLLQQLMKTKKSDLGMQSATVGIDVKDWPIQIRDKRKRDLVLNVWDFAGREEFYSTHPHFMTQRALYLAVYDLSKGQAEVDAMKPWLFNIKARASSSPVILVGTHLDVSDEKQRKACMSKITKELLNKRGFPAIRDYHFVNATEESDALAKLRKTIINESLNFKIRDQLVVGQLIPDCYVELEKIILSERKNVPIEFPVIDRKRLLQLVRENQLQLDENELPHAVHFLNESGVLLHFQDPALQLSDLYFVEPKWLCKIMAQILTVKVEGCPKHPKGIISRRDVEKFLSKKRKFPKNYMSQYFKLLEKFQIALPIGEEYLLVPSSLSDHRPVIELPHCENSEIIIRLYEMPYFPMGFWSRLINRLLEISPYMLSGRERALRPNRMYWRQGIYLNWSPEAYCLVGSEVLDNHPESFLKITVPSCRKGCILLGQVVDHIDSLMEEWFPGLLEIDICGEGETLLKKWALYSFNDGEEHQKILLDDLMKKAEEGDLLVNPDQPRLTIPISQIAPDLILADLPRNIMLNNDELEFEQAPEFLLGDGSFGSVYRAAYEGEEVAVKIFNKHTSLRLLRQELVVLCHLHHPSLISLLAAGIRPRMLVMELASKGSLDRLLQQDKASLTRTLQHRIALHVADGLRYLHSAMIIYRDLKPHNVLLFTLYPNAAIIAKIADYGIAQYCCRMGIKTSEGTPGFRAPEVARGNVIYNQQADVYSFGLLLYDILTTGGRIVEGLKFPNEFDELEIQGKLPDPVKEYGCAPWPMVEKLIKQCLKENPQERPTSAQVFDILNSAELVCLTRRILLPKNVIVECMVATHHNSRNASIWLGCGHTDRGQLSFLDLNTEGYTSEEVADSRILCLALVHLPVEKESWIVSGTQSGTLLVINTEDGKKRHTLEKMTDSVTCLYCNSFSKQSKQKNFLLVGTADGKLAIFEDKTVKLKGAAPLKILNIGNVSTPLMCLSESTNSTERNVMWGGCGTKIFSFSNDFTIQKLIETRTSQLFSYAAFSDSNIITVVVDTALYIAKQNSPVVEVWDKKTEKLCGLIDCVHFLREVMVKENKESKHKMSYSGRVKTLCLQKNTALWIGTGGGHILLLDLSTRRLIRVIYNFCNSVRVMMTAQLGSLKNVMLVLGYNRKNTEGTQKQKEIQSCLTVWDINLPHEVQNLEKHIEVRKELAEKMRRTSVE
T1 sequence (Q5S007 whole entry G2019S): as the sequence (Q5S007 whole entry) above, with G2019S counted along it
T2 sequence (Q5S007 whole entry A2016T): as the sequence (Q5S007 whole entry) above, with A2016T counted along it
Sequence of LRRK2 WT (Q5S007 whole entry): as the sequence (Q5S007 whole entry) above

SMILES	IC50 (LRRK2 G2019S) [µM]	IC50 (LRRK2 WT) [µM]	IC50 (LRRK2 A2016T) [µM]	Rab10-pThr73 levels vs PBS-treated PBMC samples (Rab10-pThr73; [1])	IC50 (Rab10-pThr73; [2]) [µM]	pIC50 ± SEM, Rab10-pThr73 (Rab10-pThr73; [2])	LRRK2 inhibition (LRRK2-pSer935; 2 µM, 1hr, non-stimulated PBMCs)	LRRK2-pSer935 levels vs PBS-treated PBMC samples (LRRK2-pSer935; [1])	IC50 (LRRK2-pSer935; [2]) [µM]	pIC50 ± SEM, LRRK2-pSer935 (LRRK2-pSer935; [2])	% Inhibition (TEC; 0.1µM) [%]	% Inhibition (TEC; 1µM) [%]	% Inhibition (MST4; 0.1µM) [%]	% Inhibition (MST4; 1µM) [%]
Cc1cccc(-c2cc(Nc3ccn(C)n3)nc3[nH]cc(C#N)c23)c1 [Lu AF58786]	0.019	0.012	0.093	–	–	–	–	–	–	–	–	–	–	–
Cn1cc(-c2c[nH]c3ncnc(N4CCOCC4)c23)cc1C#N [PFE-360]	–	–	–	significantly lower	0.012	7.9 ± 0.3 (n = 3)	full LRRK2 inhibition	significantly lower	0.024	7.6 ± 0.3 (n = 3)	-3.8	9.2	-26.3	-30

Source: article PMC5578959, “Selective LRRK2 kinase inhibition reduces phosphorylation of endogenous Rab10 and Rab12 in human peripheral mononuclear blood cells” (Scientific Reports, 2017)
